A value given as a limit tells only on which side of the number the result lay.

Six molecules from PMC2646871 (Journal of Medicinal Chemistry, 2008) can be followed below.

The target in this assay is recombinant HIV-1 integrase (Human immunodeficiency virus type 1 group M subtype B, UniProt P12497). In words: High throughput electrochemiluminescent. It counts as biochemical. Conditions: for times less potent than parent compound 6f (ST, HTECL): relative to 6f.

One may read the IC50 as the concentration that inhibits the measured activity by half. In the case of `O=C(O)/C(O)=C/C(=O)c1cn(Cc2ccc(F)cc2)c2ccc(F)cc2c1=O` [6b, 4-[6-Fluoro-1-(4-fluorophenyl)methyl-4(1H)-quinolinon-3-yl]-2-hydroxy-4-oxo-2-butenoic Acid], the concentration for half-maximal inhibition (IC50) was 30 nM.

With `O=C(O)/C(O)=C/C(=O)c1cn(Cc2ccc(F)cc2)c2c(Cl)cccc2c1=O` [6g, 4-[8-Chloro-1-(4-fluorophenyl)methyl-4(1H)-quinolinon-3-yl]-2-hydroxy-4-oxo-2-butenoic Acid], the IC50 was found to be 23 nM.

For the molecule `O=C(O)/C(O)=C/C(=O)c1cn(Cc2ccc(F)cc2)c2cc(Cl)c(Cl)cc2c1=O` [6h, 4-[6,7-Dichloro-1-(4-fluorophenyl)methyl-4(1H)-quinolinon-3-yl]-2-hydroxy-4-oxo-2-butenoic Acid], the “times less potent than parent compound 6f (ST, HTECL)” value is on record as “approximately 1.5”.

As to `O=C(O)/C(O)=C/C(=O)c1cn(Cc2ccc(F)cc2)c2cc(N3CCCC3)ccc2c1=O` [6i, 4-[1-(4-Fluorophenyl)methyl-7-(pyrrolidin-1-yl)-4(1H)-quinolinon-3-yl]-2-hydroxy-4-oxo-2-butenoic Acid], the “times less potent than parent compound 6f (ST, HTECL)” value was “approximately 1.5”.

Regarding `CCOC(=O)/C(O)=C/C(=O)c1c[nH]c2cc(Cl)ccc2c1=O` [7b, 4-(7-Chloro-4(1H)-quinolinon-3-yl)-2-hydroxy-4-oxo-2-butenoic Acid Ethyl Ester], the half-inhibitory concentration (IC50) was more than 111000 nM.

On to `O=C(O)/C(O)=C/C(=O)c1c[nH]c2ccc(Cl)cc2c1=O` [8a, 4-(6-Chloro-4(1H)-quinolinon-3-yl)-2-hydroxy-4-oxo-2-butenoic Acid], for which the IC50 is more than 111000 nM.
